Values joined by “and” are separate entries in the source; they are usually repeats but may differ in a detail not shown here. Identical values can stand only once.
Experiments:
[1] = system: spores of B. cinerea; assay: Sporicidal assay (1) with sodium nitrite, B. cinerea; type: cell-based, Botrytis cinerea
[2] = system: spores of F. oxysporum; assay: Sporicidal assay (1) with sodium nitrite, F. oxysporum; type: cell-based, Fusarium oxysporum f. sp. cubense
[3] = system: sclerotia of R. solani; assay: Scleroticidal assay with compositions and sodium nitrite; type: cell-based, Rhizoctonia solani
From the text: Scleroticidal assay. Plugs of agar containing white immature sclerotia (3×3 millimeters) were cut from a 6 to 8 day culture of R. solani, whilst mature melanized (black) sclerotia (around 10×3 millimeters) were excised from 13-day old R. solani cultures and cut into 2×3 millimeter pieces with a scalpel. The sclerotia samples were then placed in the wells of a 96-well plate containing 75 microliters of various concentrations of sodium nitrite or sterile distilled water (DW) as control. TO start the reaction, 75 microliters of CuZn #31 (diluted in DW) was added to the wells. The plate was carefully shaken and incubated at room temperature for 10 minutes when the liquid was carefully removed and 150 microliters of CM-1 medium was added for 5 minutes to stop the reaction.

[4] = NaNO2 1 mM + DW (sodium nitrite alone)
[5] = NaNO2 3 mM + DW (sodium nitrite alone)
[6] = NaNO2 10 mM + DW (sodium nitrite alone)
[7] = NaNO2 30 mM + DW (sodium nitrite alone)

## O=NO [NaNO2, sodium nitrite]
[1]; [4]
  Fungal growth score, spores of B. cinerea: 2
[1]; [5]
  Fungal growth score, spores of B. cinerea: 2
[1]; [6]
  Fungal growth score, spores of B. cinerea: 2
[1]; [7]
  Fungal growth score, spores of B. cinerea: 2
[1]; NaNO2 100 mM + DW (sodium nitrite alone)
  Fungal growth score, spores of B. cinerea: 2
[2]; 100 millimolar sodium nitrite alone, data not shown
  sporicidal activity to F. oxysporum spores: sporicidal
[2]; [4]
  Fungal growth score, spores of F. oxysporum: 2
[2]; [5]
  Fungal growth score, spores of F. oxysporum: 2
[2]; [6]
  Fungal growth score, spores of F. oxysporum: 2
[2]; [7]
  Fungal growth score, spores of F. oxysporum: 2
[3]; NaNO2 30 mM + 0 composition (sodium nitrite alone)
  Mean fungal growth (in mm ± SD, n = 2) of black sclerotia after treatment: 41 ± 2 mm and 43 ± 2 mm
[3]; sodium nitrite alone (0+100), white or black sclerotia
  scleroticidal effect (words, FIG. 2): little or no significant scleroticidal effect

Reference: patent US11395492B2, “Antimicrobial and agrochemical compositions” (Myco Sciences Limited, priority 2015, dated 2022)
